In article PMC11240924, “Isolation, Identification, and Biological Activities of a New Chlorin e6 Derivative” (International Journal of Molecular Sciences, 2024):

Legend:
[1] = Singlet oxygen photogeneration (DPBF quenching); conditions: for change of DPBF absorbance at higher doses: 5 and 10 µM
Experimental: Singlet oxygen photoregeneration was carried out using 1, 3-diphenylisobenzofuran (DPBF) in DMSO. DPBF is a selective ^1O2 acceptor that reacts with ^1O2. The sample solutions of DPBF (50 μM) which contained DPBF only (50 μM, as a control), MB (1, 5, and 10 μM), chlorin e6 (1, 5, and 10 μM), and rhodin g7 7^1-ethyl ester (1, 5, and 10 μM) were prepared under dark conditions. All of the samples were placed in a 96-well plate, which was covered with aluminum foil. The samples were then irradiated (660 nm, 50 mW, 0.5 J/cm^2) for 1 min and 40 s, and after irradiation, the visible spectra of the sample solutions were measured spectrophotometrically. The normalized absorbance of DPBF at 418 nm was measured in these samples. The ^1O2 photo-generation activities of MB, chlorin e6, and rhodin g7 7^1-ethyl ester can be compared with the different absorbance decay of each sample relative to the DPBF control sample.

MIA PaCa-2 cells = assay: Cellular uptake (plate reader and FOBI), MIA PaCa-2; type: cell-based, Human; conditions: 3 h; for fluorescence intensity of treated cells compared to control (uptake): MIA PaCa-2, 100 μΜ
Experimental: A quantitly of 5 × 10^5 of MIA PaCa-2 and 2 × 10^5 of BV2 cells per well were seeded in a 6-well plate and were treated with or without chlorin e6 or rhodin g7 7^1-ethyl ester (10 and 100 μΜ). After 3 h, the cells were harvested and washed twice with 1 × phosphate buffered saline (DPBS) to remove the remaining chlorin e6 or rhodin g7 7^1-ethyl ester from the culture media and cell surfaces. The cells from each well were resuspended in 1 mL of 1 × DPBS and measured using FOBI and a plate reader. chlorin e6 or rhodin g7 7^1-ethyl ester-treated cells were divided into triplicate wells of a black-walled 96-well plate, each containing 100 µL. The measurement was taken immediately after aliquoting using a Spark Multimode Microplate Reader (Tecan Trading AG, Männedorf, Switzerland) for spectroscopy. The fluorescence was measured using excitation and emission peaks of 405 nm and 500–800 nm. For the FOBI analysis, 700 µL of chlorin e6 or rhodin g7 7^1-ethyl ester-treated cells was added to the e-tubes, and bioimaging was performed immediately using the fluorescence-labeled organism bioimaging instrument (FOBI) system (Cellgentek, Daejeon, Republic of Korea). Each image was exposed for 0.3 s, with a 405 nm wavelength LED, and an emmission light of 502 nm. The results were further quantitatively measured using the “NEOimage FOBI” software.

B16F10 = assay: MTT cytotoxicity (PDT and dark), B16F10; type: cell-based, Murine; conditions: Mus musculus, B16-F10, light or radiation study, 3 h exposure, 660 nm laser 0.5 J/cm^2, MTT after 24 h
From the text: (§1) B16F10 (KCLB80008), MIA PaCa-2 (KCLB21420), PANC-1 (KCLB21469), HT-29 (KCLB30038), AsPC-1 (KCLB21682), and Raw 264.7 (KCLB40071) cells were procured from the Korean Cell Line Bank (KCLB, Seoul, Republic of Korea). AsPC-1 and RAW264.7 were thawed and maintained in RPMI-1640 media (Life Technologies corporation, Carlsbad, CA, USA) supplemented with 10% fetal bovine serum (Life Technologies corporation, USA) and 1% penicillin and streptomycin (Life Technologies corporation, USA), while MIA PaCa-2, PANC-1, HT-29, and B16F10 cell lines were cultured in DMEM (Life technologies corporation, USA) containing 10% fetal bovine serum and 1% penicillin and streptomycin. All the cells were cultured at 37 °C in a 5% CO2 incubator.
(§2) After seeding B16F10 or MIA PaCa-2 at a density of 5 × 10^3 cells/well and PANC-1, HT-29, or AsPC-1 at a density of 1 × 10^4 cells/well in 96-well plates, the cells were incubated overnight at 37 °C in a CO2 incubator. The cells were exposed to different doses of either chlorin e6 or rhodin g7 7^1-ethyl ester (0, 2.5, 5, 10, 20, 40, and 80 µM) for 3 h. After the incubation, the cells were either subjected to a 660 nm laser with a power density of 50 mW (0.5 J/cm^2) or not and were further incubated for 24 h at 37 °C. Moreover, the MTT assay was used to analyze the cell viability. The absorbance values of 540 nm were then measured using a microplate reader (Multiskan GO, Thermo Fisher Scientific, Oy, Ratastie 2, FI-01620 Vantaa, Finland).

[2] = MTT cytotoxicity (PDT and dark), B16F10; type: cell-based, Murine; conditions: mouse, B16F10 cells, no illumination, MTT after 24 h
From the text: as §1, §2

AsPC-1 = assay: MTT cytotoxicity (PDT and dark), AsPC-1; type: cell-based, Human; conditions: Homo sapiens, ASPC1, light or radiation study, 3 h exposure, 660 nm laser 0.5 J/cm^2, MTT after 24 h
From the text: as §1, §2

[3] = MTT cytotoxicity (PDT and dark), AsPC-1; type: cell-based, Human; conditions: human, AsPC-1 cells, no illumination, MTT after 24 h
From the text: as §1, §2

MIA PaCa-2 = assay: MTT cytotoxicity (PDT and dark), MIA PaCa-2; type: cell-based, Human; conditions: Homo sapiens, light or radiation study, 3 h exposure, 660 nm laser 0.5 J/cm^2, MTT after 24 h
From the text: as §1, §2

[4] = MTT cytotoxicity (PDT and dark), MIA PaCa-2; type: cell-based, Human; conditions: human, MIA PaCa-2 cells, no illumination, MTT after 24 h
From the text: as §1, §2

ICR mice = assay: Biodistribution, ex vivo organ fluorescence; type: in vivo; conditions: 2.5 mg/kg intravenous
Experimental: The animal study was approved by the Institutional Animal Care and Use Committee of the Dongsung Cancer Center under protocol IACUC # ds0022010107-2. The experiments were carried out in compliance with the ARRIVE guidelines. Male ICR mice (4 weeks old, OrientBio, Seongnam City, Republic of Korea) were used for the biodistribution study. The biodistribution analysis for rhodin g7 7^1-ethyl ester was calculated using tissue fluorescence. ICR mice (n = 7) were injected with or without rhodin g7 7^1-ethyl ester (2.5 mg/kg) intravenously. After the administration of rhodin g7 7^1-ethyl ester for 0, 24, 48, 72, 96, and 120 h, the mice were sacrificed, and their organs (kidney, spleen, heart, lungs, liver, skin, and pancreas) were resected. Fluorescence imaging was used to determine the ex vivo organ distributions of rhodin g7 7^1-ethyl ester utilizing the FOBI imaging system (Neo-Science, Suwon, Republic of Korea). For the rhodin g7 7^1-ethyl ester extraction, the organ tissues were then mixed with lysis buffer, homogenized in a tissue homogenizer, and centrifuged at 9000 rpm for 15 min. The rhodin g7 7^1-ethyl ester content in the supernatant was then evaluated using a Spark Multimode Microplate Reader (Tecan Trading AG, Männedorf, Switzerland) spectrophotometrically at 660 nm. The fluorescence intensity was adjusted to the tissue weight.

Row | fluorescence intensity relative to chlorin e6 (uptake) (MIA PaCa-2 cells; MIA PaCa-2, FOBI system, 10 μΜ) | fluorescence intensity relative to chlorin e6 (uptake) (MIA PaCa-2 cells; MIA PaCa-2, FOBI system, 100 μΜ) | fluorescence intensity relative to chlorin e6 (uptake) (MIA PaCa-2 cells; MIA PaCa-2, plate reader, 10 μΜ) | fluorescence intensity relative to chlorin e6 (uptake) (MIA PaCa-2 cells; MIA PaCa-2, plate reader, 100 μΜ) | time of peak fluorescence intensity post injection, all organs (ICR mice; 0-120 h) | organ with greatest signal intensity (predominant accumulation) (ICR mice; ex vivo FLI of excised organs) | Compound | change of DPBF absorbance at higher doses [1] | fluorescence intensity of treated cells compared to control (uptake) (MIA PaCa-2 cells) | IC50 (B16F10) | IC50 [2] | IC50 (AsPC-1) | IC50 [3] | IC50 (MIA PaCa-2) | IC50 [4] | more singlet oxygen compared to chlorin e6 alone ([1]; 1 µM)
1 |  |  |  |  |  |  | C=Cc1c(C)c2cc3nc(c(CC(=O)O)c4[nH]c(cc5nc(cc1[nH]2)C(C)=C5CC)c(C)c4C(=O)O)[C@@H](CCC(=O)O)[C@@H]3C [chlorin e6] | large increase in DPBF absorbance | significant increase in fluorescence intensity | 33.6 µM | 556 µM | 30.4 µM | 248 µM | 23.3 µM | 430 µM | 
2 | 1.02 times | 1.3 times | 3 times | 1.4 times | 0 h | liver | C=Cc1c(C)c2cc3nc(c(CC(=O)O)c4[nH]c(cc5nc(cc1[nH]2)C(C(=O)OCC)=C5CC)c(C)c4C(=O)O)[C@@H](CCC(=O)O)[C@@H]3C [rhodin g7 7^1-ethyl ester] | large increase in DPBF absorbance | significant increase in fluorescence intensity | 12.3 µM | 262 µM | 49.1 µM | 395 µM | 7.6 µM | 161 µM | 11.12%
